Each block holds one molecule with its values, some of them ahead of it. Active and inactive are the calls of the source.
Experiments:
Cytochrome P450 3A4 = Cytochrome P450 3A4 (Homo sapiens, UniProt P08684);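 note: CYP3A4 tested as one member of a cytochrome P450 panel screen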
[1] = Luminescence Cell-Based Dose Retest to Confirm Inhibitors of Cancer Stem Cells. [Related pubchem assays (depositor defined):AID2717, AID2721]; assay type: functional; details: Homo sapiens
Cytochrome P450 2D6 = Cytochrome P450 2D6 (Homo sapiens, UniProt P10635);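 note: CYP2D6 member of a cytochrome P450 panel assay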
[2] = Trypanosoma cruzi growth suppression in host cells – NIH3T3 host cells, beta-gal luminescence, confirmation (AID 2044); assay type: functional, cell-based;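 note: intracellular parasites grown in NIH/3T3 mouse fibroblasts as host cells; luminescent beta-galactosidase reporter signal from transgenic T. cruzi replicating inside host cells; inhibitors lower the luminescence signal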
[3] = NIH3T3 cell viability loss – ATP luminescence, mouse fibroblasts, counter-screen, dose response (AID 2010); assay type: functional, cell-based;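 note: cells exposed to compound for about 90 hours before reading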
[4] = target: T1, Rac GTPase-activating protein 1 (Homo sapiens, UniProt Q9H0H5); assay: blockers of MgcRacGAP-driven Rac1 GTP hydrolysis – biochemical, ADP Hunter fluorescence, primary and confirmatory, confirmation (AID 624330); assay type: functional
T1 sequence (Q9H0H5 whole entry): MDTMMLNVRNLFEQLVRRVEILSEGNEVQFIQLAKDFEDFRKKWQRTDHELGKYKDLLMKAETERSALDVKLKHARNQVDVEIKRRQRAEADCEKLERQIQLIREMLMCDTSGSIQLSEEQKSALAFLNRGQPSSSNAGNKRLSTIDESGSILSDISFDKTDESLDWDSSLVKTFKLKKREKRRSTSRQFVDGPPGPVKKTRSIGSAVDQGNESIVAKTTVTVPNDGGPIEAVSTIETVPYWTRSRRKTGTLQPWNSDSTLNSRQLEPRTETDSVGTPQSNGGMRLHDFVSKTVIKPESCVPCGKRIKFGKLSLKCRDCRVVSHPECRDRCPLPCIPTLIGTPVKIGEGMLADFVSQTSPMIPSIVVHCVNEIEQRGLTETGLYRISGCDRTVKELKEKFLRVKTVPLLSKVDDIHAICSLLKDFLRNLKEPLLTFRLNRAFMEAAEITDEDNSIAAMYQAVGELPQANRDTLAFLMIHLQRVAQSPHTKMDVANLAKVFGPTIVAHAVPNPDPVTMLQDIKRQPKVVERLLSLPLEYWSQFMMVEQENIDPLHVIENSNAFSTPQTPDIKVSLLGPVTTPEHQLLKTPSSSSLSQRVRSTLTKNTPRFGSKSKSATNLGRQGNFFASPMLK

Cytochrome P450 2C19 = Cytochrome P450 2C19 (Homo sapiens, UniProt P33261); assay: Cytochrome panel assay with activity outcomes. Panel member name: p450-cyp2c19 Compounds with AC50 equal or less than 10 uM are considered active; assay type: functional; details: read-out: AC50
INS1 = assay: INS-1E survival protection against cytokine death – cell-based, luminescence, retest, dose response (AID 449756); assay type: functional; details: Rattus norvegicus;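 note: cell death triggered by IL-1 beta plus TNF-alpha plus IFN-gamma mixture; protective hits raise ATP signal compared with cytokine alone wells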

Chain of Cytochrome P450 2D6 (P10635 whole entry): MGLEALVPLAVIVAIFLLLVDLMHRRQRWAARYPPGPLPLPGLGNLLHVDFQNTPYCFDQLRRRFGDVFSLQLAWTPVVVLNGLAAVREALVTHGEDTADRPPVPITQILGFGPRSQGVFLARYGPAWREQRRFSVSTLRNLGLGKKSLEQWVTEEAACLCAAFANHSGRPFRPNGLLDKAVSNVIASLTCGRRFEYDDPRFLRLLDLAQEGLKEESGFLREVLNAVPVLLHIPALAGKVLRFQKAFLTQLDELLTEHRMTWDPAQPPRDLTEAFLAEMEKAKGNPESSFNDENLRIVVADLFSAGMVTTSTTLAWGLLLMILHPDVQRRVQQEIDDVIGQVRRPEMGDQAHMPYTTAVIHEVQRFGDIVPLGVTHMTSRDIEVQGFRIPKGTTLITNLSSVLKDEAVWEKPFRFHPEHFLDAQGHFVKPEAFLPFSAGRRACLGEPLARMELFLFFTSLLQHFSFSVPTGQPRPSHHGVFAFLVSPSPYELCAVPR
Chain of Cytochrome P450 3A4 (P08684 whole entry): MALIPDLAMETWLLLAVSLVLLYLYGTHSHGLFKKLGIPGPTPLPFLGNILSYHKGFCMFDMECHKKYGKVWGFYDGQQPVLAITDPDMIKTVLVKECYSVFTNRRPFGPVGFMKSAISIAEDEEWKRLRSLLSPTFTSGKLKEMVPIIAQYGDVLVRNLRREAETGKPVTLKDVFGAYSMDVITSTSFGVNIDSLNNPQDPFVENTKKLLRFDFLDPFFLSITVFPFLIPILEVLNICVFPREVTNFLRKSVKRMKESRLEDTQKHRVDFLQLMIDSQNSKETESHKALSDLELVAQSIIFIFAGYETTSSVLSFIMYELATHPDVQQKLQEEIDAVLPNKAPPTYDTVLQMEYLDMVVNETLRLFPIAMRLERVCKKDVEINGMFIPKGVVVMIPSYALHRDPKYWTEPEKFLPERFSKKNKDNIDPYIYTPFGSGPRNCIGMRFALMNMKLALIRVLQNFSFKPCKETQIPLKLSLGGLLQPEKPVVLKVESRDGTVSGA
Chain of Cytochrome P450 2C19 (P33261 whole entry): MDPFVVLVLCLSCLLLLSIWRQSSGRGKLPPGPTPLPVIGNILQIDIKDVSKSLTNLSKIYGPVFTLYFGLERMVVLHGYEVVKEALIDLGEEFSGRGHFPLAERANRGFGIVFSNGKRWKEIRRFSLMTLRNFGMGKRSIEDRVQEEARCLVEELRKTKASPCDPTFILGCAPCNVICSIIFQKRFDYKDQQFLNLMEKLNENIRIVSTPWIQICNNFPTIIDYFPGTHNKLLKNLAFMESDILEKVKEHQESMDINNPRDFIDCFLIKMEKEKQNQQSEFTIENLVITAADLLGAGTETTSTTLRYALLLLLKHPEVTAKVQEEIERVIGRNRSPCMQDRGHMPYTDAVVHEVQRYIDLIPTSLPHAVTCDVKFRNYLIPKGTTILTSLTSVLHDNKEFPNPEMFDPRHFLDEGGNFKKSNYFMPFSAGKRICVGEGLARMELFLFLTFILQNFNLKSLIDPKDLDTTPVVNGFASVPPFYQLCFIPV

AC50 (Cytochrome P450 3A4): 25.1 µM (inconclusive)
Structure (SMILES): COc1ncc2nc(-c3ccccc3)c(=O)n(C[C@H]3CCCO3)c2n1

Structure (SMILES): CCC(CO)Oc1cc(NCc2ccc(Cl)cc2Cl)c2ncn(C(C)C)c2c1 (centres undefined)
AC50 [1]: 8.14 µM (active)

AC50 (Cytochrome P450 3A4): 28.2 µM (inconclusive)
Structure (SMILES): CCc1ccc(-c2csc(NC(=O)C3CCCO3)c2C(=O)OC(C)C)cc1 (centres undefined)

AC50 (Cytochrome P450 2D6): 12.6 µM (inconclusive)
Structure (SMILES): O=C1CCCC2=C1C(c1ccc(OS(=O)(=O)c3ccc(Cl)cc3)cc1)C1=C(CCCC1=O)O2

Structure (SMILES): COc1cc(Br)c(/C=C/c2ccc3cccc(O)c3n2)cc1OC
EC50 [2]: 0.831 µM (active) | EC50 [3]: > 60 µM (not active)

Structure (SMILES): CC[C@H]1CN2CCc3cc(OC)c(OC)cc3[C@H]2C[C@@H]1C[C@H]1NCCc2c1[nH]c1ccc(O)cc21
AC50 (Cytochrome P450 2D6): 3.98 µM (inconclusive)

IC50 [4]: 85.6 µM (active)
Structure (SMILES): COc1ccc(/C=N/NC(=O)c2cnccn2)cc1O

AC50 (Cytochrome P450 2C19): 3.16 µM (inconclusive)
Structure (SMILES): NC1=NC(Nc2ccc(F)cc2F)=NC2(CCCCC2)N1

Structure (SMILES): COC(=O)c1[nH]c2ccc(Cl)cc2c1NC(=O)Oc1ccccc1
IC50 [4]: 19.8 µM (active)

Structure (SMILES): O=C(O)Cc1c[nH]cn1 [IMIDAZOLE ACETIC ACID]
AC50 (Cytochrome P450 3A4): 31.6 µM (inconclusive)

Structure (SMILES): O=C(CCCCN1CCCCC1)c1ccc2c(c1)Cc1ccccc1-2
EC50 [2]: 1.9 µM (active) | EC50 [3]: 13.6 µM (active)

AC50 (Cytochrome P450 2D6): 39.8 µM (inconclusive)
Structure (SMILES): c1ccc(-c2cccc(N3CCC4(CCNCC4)CC3)c2)cc1

AC50 (Cytochrome P450 2D6): 11.2 µM (inconclusive)
Structure (SMILES): COCCN1CN=C(Nc2nc3ccccc3s2)NC1

IC50 [4]: 47.1 µM (active)
Structure (SMILES): COc1cc(/C=C/C(=O)OCC(=O)NC2CCS(=O)(=O)C2)ccc1O (centres undefined)

Structure (SMILES): C/C(Cn1cnc([N+](=O)[O-])n1)=N/NC(=O)COc1ccccc1Cl
EC50 [2]: 0.154 µM (active) | EC50 [3]: > 60 µM (not active)

Structure (SMILES): O=C(Cn1cnc([N+](=O)[O-])n1)N/N=C/c1ccc2ccccc2c1
EC50 [2]: 0.333 µM (active) | EC50 [3]: > 60 µM (not active)

Structure (SMILES): COc1ccc(C(=O)c2c(C)c3ccccc3n2CC(O)CNC(C)C)cc1 (centres undefined)
AC50 (INS1): 30.1 µM (active)

Structure (SMILES): CNC(=S)N(Cc1cccs1)Cc1cc2cc(OC)c(OC)cc2nc1O
AC50 (INS1): 99.3 µM (active)

AC50 (Cytochrome P450 2D6): 39.8 µM (inconclusive) | AC50 (Cytochrome P450 3A4): 12.6 µM (inconclusive)
Structure (SMILES): COCC(=O)N1CCC2(CCCN(c3cccc(-c4ccccc4)c3)C2)CC1

IC50 [4]: 32.1 µM (active)
Structure (SMILES): CCOc1cc(/C=N/Nc2ncc(C)c(O)n2)ccc1O

Structure (SMILES): CN(CC(=O)Nc1ccc(S(=O)(=O)N2CCCC2)cc1)Cc1ccc(Cl)cc1
EC50 [2]: 1.58 µM (active) | EC50 [3]: > 60 µM (not active)

Structure (SMILES): CC(=O)c1ccc(OCc2cc(C(=O)N3CCCCC3c3cccnc3)no2)cc1 (centres undefined)
AC50 (INS1): 14.3 µM (active)

AC50 (Cytochrome P450 3A4): 25.1 µM (inconclusive)
Structure (SMILES): O=C(OCc1nc2ccccc2s1)c1ccc(Br)s1

Structure (SMILES): Cc1ccc(OCC(O)Cn2c3ccccc3c3ccccc32)cc1 (centres undefined)
AC50 [1]: 4.84 µM (active)

Structure (SMILES): O=C(NC(=S)NCc1cccnc1)c1cccc2ccccc12
EC50 [2]: 0.505 µM (active) | EC50 [3]: > 60 µM (not active)

Structure (SMILES): COc1cccc(NC(=O)Nc2ccc(C)c(Cl)c2)c1
EC50 [2]: 2.41 µM (active) | EC50 [3]: > 30 µM (not active)

Structure (SMILES): CN(C)CCCn1c2c(c(SCC(=O)Nc3cccc4ccccc34)nc1=O)CCC2
EC50 [2]: 2.04 µM (active) | EC50 [3]: > 60 µM (not active)

IC50 [4]: 83.6 µM (active)
Structure (SMILES): CCc1cc(-c2n[nH]cc2-c2nc3ccccc3n2C)c(O)cc1O

AC50 (Cytochrome P450 2D6): 1.58 µM (inconclusive)
Structure (SMILES): CSc1nc2ccccc2cc1/C=C(\C#N)c1ccc(Cl)cc1Cl

Structure (SMILES): Cn1nnnc1SCCNCc1cccc2ccccc12
EC50 [2]: > 60 µM (not active) | EC50 [3]: > 60 µM (not active)

AC50 (Cytochrome P450 2C19): 39.8 µM (inconclusive)
Structure (SMILES): COc1ccc(S(=O)(=O)N2CCC(N3CCCCC3)CC2)cc1

Structure (SMILES): Oc1ccccc1CNCc1ccccc1O
AC50 (Cytochrome P450 2D6): 3.16 µM (inconclusive)

Structure (SMILES): CCC(CO)Oc1cc(NCc2ccc(C)c(C)c2)c2ncn(C(C)C)c2c1 (centres undefined)
AC50 (INS1): 5.86 µM (active)

IC50 [4]: 63 µM (active)
Structure (SMILES): CCN(CC)c1ccc(NC(=O)COc2ccc(-n3cnnn3)cc2)cc1

Structure (SMILES): C=CCc1cccc(/C=N/NC(=O)c2ccccc2OC)c1O
AC50 (INS1): 3.06 µM (active) | EC50 [2]: 2.2 µM (active) | EC50 [3]: > 60 µM (not active)

Structure (SMILES): O=C(COc1ccc(Br)cc1Cl)NC1CCN(Cc2ccccc2)CC1
EC50 [2]: 0.165 µM (active) | EC50 [3]: > 60 µM (not active)

From ChEMBL document CHEMBL1201862, “PubChem BioAssay data set” (2004)
